Patent EP3666770A1, “NOVEL HETEROCYCLIC COMPOUNDS AS CDK8/19 INHIBITORS” (Joint Stock Company "Biocad", priority 2017, dated 2019)
“And” between values parts separate entries of the source, which are not always exact repeats. Equal entries are not always repeated. Where two headings read alike, the source gives them in different places.

How the values were obtained:
[1] = Permeability through Caco-2 cell monolayer; assay type: in vitro ADME; conditions: human, Caco-2; for Papp A→B at 2 h, 10 µM: A->B transfer, pH 6.5 -> pH 7.4, 2 hours at 37 °C; for efflux ratio at 2 h, 10 µM: efflux = Papp B-A / Papp A-B
Description: Estimation of permeability through Caco-2 cell monolayer enables assessment of the ability of the substances to penetrate through biological membranes by means of both active and passive transport.
Intestinal epithelial cells Caco-2 were grown on filter inserts (pore size 0.4 µm, BD Falcon with High Density) for 21 days; monolayer integrity was then checked using Lucifer Yellow (Sigma-Aldrich, USA) according to the standard protocol. In A->B transfer ("intestinal lumen" - "blood stream" transfer), solutions of the test substances in buffer, pH 6.5 (HBSS, 10 mM HEPES, 15 mM glucose) at a concentration of 10 µM were added to the upper chamber; whereas the lower chamber was filled with buffer, pH 7.4 (HBSS, 10 mM HEPES, 15 mM Glucose, 1% BSA). In B->A transfer ("blood stream" - "intestinal lumen" transfer), the upper chamber was filled with buffer, pH 6.5, whereas the solutions of the test substances in buffer, pH 7.4, at a concentration of 10 µM were added to the lower chamber. A highly permeable substance propranolol was used as a control.
After 2 hours incubation at 37 ° C under an atmosphere containing 5% CO2, the amounts of the test substances in the upper and lower chambers were measured by HPLC using an Agilent1200 HPLC system (Agilent, USA), proteins were preliminarily precipitated with acetonitrile. Chromatographic analysis was performed in a gradient elution regime with a flow rate of 1 mL/min. The peak areas corresponding to the compounds were detected on chromatograms.
The value was calculated using the formula: efflux = Papp B−A /Papp A−B , [formula] where • Papp A-E - the value of permeability direct analysis A→ B; • Papp B-A - the value of the permeability of the reverse analysis B→ A.

KG-1 = assay: Cell-based antiproliferative test (AlamarBlue), KG-1; conditions: Homo sapiens, KG-1; 120 h incubation; average values of several tests; read-out: KG-1 IC50, mkM
Description: (§1) Antiproliferative activity of CDK8 inhibitors according to the present invention was measured in a cell-based test on continuous cell cultures MV4-11 (biphenotypic myelomonocytic leukemia, ATCC® CRL-9591™), KG-1 (acute myeloid leukemia, ATCC® CCL-246™), HL-60 (acute promyelocytic leukemia, ATCC® CCL-240™) using a vital stain AlamarBlue (ThermoFisher, #DAL1100). The cells were grown in RPMI-1640 (PanEco, #C330p) medium with addition of 10% FBS (Gibco, #16140-071); washed and resuspended in culture medium with 10% FBS (Gibco, #16140-071) in 96-well culture plates (Corning, #3599) with ≈ 10 ×10^3 cells in […] of medium per well. The compounds in question were dissolved in DMSO and diluted with a medium with 10% FBS (Gibco, #16140-071) to a final concentration ranging form 0 to 100 µM. […] of diluted compounds were then added to each well (final DMSO concentration was less than 1%) and incubated under 5% CO2 atmosphere at 37°C for 120 h. After incubating, 15 µL of AlamarBlue (ThermoFisher, #DAL1100) reagent was added per well, contents of plates were mixed in an orbital shaker (Biosan, Latvia) and further incubated for 3-5 h at 37°C under 5% CO2 atmosphere. Number of living cells was estimated using a microplate spectrophotometer (Tecan Infinite M200Pro, Switzerland) measuring fluorescent signal at the excitation wavelength (λEx) of 540 nm and emission wavelength (λEm) of 590 nm.
(§2) IC50 was calculated using Magellan 7.2 software (Tecan, Switzerland) approximating experimental points by four-parameter logistic model with the optimization by Levenberg-Marquardt (table 7, table 7).

HL-60 = assay: Cell-based antiproliferative test (AlamarBlue), HL-60; conditions: 120 h incubation, average values of several tests, read-out: HL-60 IC50, mkM
Description: as §1, §2

[2] = Enzyme stability in human liver microsomes; assay type: in vitro ADME; conditions: pH 7.4; 0,5 mg/mL pooled human liver microsomes; 10 µM compound; 37°C; pH=7,4
Summary of the method: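 Pooled human liver microsomes (0,5 mg/mL) incubated at 37 °C with 10 µM compound, 2 mM β-NAD and 4 mM MgCl2 in 0,1 M sodium phosphate, pH 7,4. Samples quenched with acetonitrile and analysed by HPLC. Elimination rate constant taken from the slope of log peak area versus time, giving t1/2 and CLint.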

[3] = Chemical stability in simulated gastric fluid (SGF); assay type: physicochemical; conditions: SGF without enzymes, pH=1,4; 10 µm; 2 hours at 37°C; substance amount in % after thermostatting
Summary of the method: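 Compounds at […] (diluted from DMSO stock) were incubated for 2 h at 37 °C in enzyme-free simulated gastric fluid, pH=1,4. HPLC peak areas before and after incubation gave the % of compound remaining.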

[4] = Chemical stability in human blood plasma; assay type: in vitro ADME; conditions: pooled human blood plasma; 10 µM; 4 hours at 37°C; substance amount in % after thermostatting
Summary of the method: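 Pooled plasma from ten healthy human donors; compound diluted from 10 mM DMSO stock to 10 µm final and incubated 4 h at 37°C. After acetonitrile protein precipitation, HPLC peak areas before and after incubation were compared; value is % compound remaining.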

[5] = General cytotoxicity test on HepG2 cells; assay type: cell-based; conditions: human, 72 h incubation, 200 to 0.78 µM, average values of several tests, read-out: Hep-G2 CC50, mkM
Description: Cell viability was assessed using the above method. Table 6. […] The results are presented as average values of activity obtained in several tests.

MV4-11 = assay: Cell-based antiproliferative test (AlamarBlue), MV4-11; conditions: Homo sapiens, MV4-11, 120 h, 120 h incubation; average values of several tests; read-out: MV-4-11 IC50, mkM

COCCNC(=O)c1ccc2nccc(-c3ccc(-c4cnn(C)c4)cc3)c2c1 [CDK8-6-14, N-(2-Methoxyethyl)-4-(4-(1-methyl-1H-pyrazol-4-yl)phenyl)quinoline-6-carboxamide]
Papp A→B at 2 h, 10 µM [1]: 64.1 ×10⁻⁶ cm/s
efflux ratio at 2 h, 10 µM [1]: 0.44
IC50 (KG-1): 9.6 µM
IC50 (HL-60; Homo sapiens, HL-60, 120 h): 66.5 µM
microsomal CLint at 10 µM [2]: 11.8 µL/min/mg
Stability in SGF, % [3]: 100%
Stability in blood plasma, % [4]: 100%
CC50 at 72 h ([5]; HepG2 cells): > 50 µM
IC50 (MV4-11): 11.7 µM

O=C(c1ccc2ncn(-c3ccc(-c4cn[nH]c4)cc3)c2c1)N1CCCCC1 [CDK8-1-3, (1-(4-(1H-Pyrazol-4-yl)phenyl)-1H-benzo[d]imidazol-6-yl)(piperidin-1-yl) methanone]
Papp A→B at 2 h, 10 µM [1]: 64.1 ×10⁻⁶ cm/s
efflux ratio at 2 h, 10 µM [1]: 0.44
IC50 (KG-1): 27.6 µM
IC50 (HL-60; Homo sapiens, HL-60, 120 h): 81.4 µM
microsomal CLint at 10 µM [2]: 24.8 µL/min/mg
Stability in SGF, % [3]: 100%
Stability in blood plasma, % [4]: 97.7%
CC50 at 72 h ([5]; HepG2 cells): 59.1 µM
IC50 (MV4-11): 2.08 µM

COc1cc(-c2cnc3[nH]cc(C(=O)c4cccnc4)c3c2)ccc1N1CCOCC1 [CDK8-4-27, (5-(3-Methoxy-4-morpholinophenyl)-1H-pyrrolo[2,3-b]pyridin-3-yl) (pyridin-3-yl) methanone]
Papp A→B at 2 h, 10 µM [1]: 84.6 ×10⁻⁶ cm/s
efflux ratio at 2 h, 10 µM [1]: 0.25
IC50 (KG-1): 5.21 µM
IC50 (HL-60; Homo sapiens, HL-60, 120 h): > 100 µM
microsomal CLint at 10 µM [2]: 7.2 µL/min/mg
Stability in SGF, % [3]: 100%
Stability in blood plasma, % [4]: 100%
CC50 at 72 h ([5]; HepG2 cells): > 100 µM
IC50 (MV4-11): 0.05 µM

O=C(C1CN(c2ccc3ncn(-c4ccc(-c5cn[nH]c5)cc4)c3c2F)C1)N1CCOCC1 [CDK8-1-14, (1-(1-(4-(1H-Pyrazol-4-yl)phenyl)-7-fluoro-1H-benzo[d]imidazol-6-yl)azetidin-3-yl)(morpholino)methanone]
Papp A→B at 2 h, 10 µM [1]: 39.9 ×10⁻⁶ cm/s
efflux ratio at 2 h, 10 µM [1]: 0.79
IC50 (KG-1): 23.2 µM
IC50 (HL-60): 60.7 µM
IC50 (HL-60; Homo sapiens, HL-60, 120 h): 33.9 µM
microsomal CLint at 10 µM [2]: 12.4 µL/min/mg
Stability in SGF, % [3]: 92.5% and 100%
Stability in blood plasma, % [4]: 100%
CC50 at 72 h ([5]; HepG2 cells): > 100 µM
CC50 at 72 h [5]: > 50 µM

COCCNC(=O)c1cnc2cncc(-c3ccc(-c4cnn(C)c4)cc3)c2c1 [CDK8-3-18, N-(2-Methoxyethyl)-5-(4-(1-methyl-1H-pyrazol-4-yl)phenyl)-1,7-naphthyridine-3-carboxamide]
Papp A→B at 2 h, 10 µM [1]: 46.9 ×10⁻⁶ cm/s
efflux ratio at 2 h, 10 µM [1]: 0.9
IC50 (KG-1): 0.08 µM
IC50 (HL-60; Homo sapiens, HL-60, 120 h): 35 µM
microsomal CLint at 10 µM [2]: 10.4 µL/min/mg
Stability in SGF, % [3]: 100%
Stability in blood plasma, % [4]: 100%
CC50 at 72 h ([5]; HepG2 cells): > 200 µM
IC50 (MV4-11): 0.19 µM

Cn1cc(-c2ccc(-c3ccnc4ccc(N5CCCC5=O)cc34)cc2)cn1 [CDK8-6-13, 1-(4-(4-(1-Methyl-1H-pyrazol-4-yl)phenyl)quinolin-6-yl) pyrrolidin-2-one]
IC50 (KG-1): 12.3 µM
IC50 (HL-60; Homo sapiens, HL-60, 120 h): > 60 µM
microsomal CLint at 10 µM [2]: 22.6 µL/min/mg
Stability in SGF, % [3]: 99.7%
Stability in blood plasma, % [4]: 98.9%
CC50 at 72 h ([5]; HepG2 cells): > 200 µM
IC50 (MV4-11): 19.7 µM

NC(=O)c1ccc(-n2cnc3ccc(N4CC(C(=O)Nc5ccccc5)C4)cc32)cc1 [CDK8-1-6, 1-(1-(4-Carbamoylphenyl)-1H-benzo[d]imidazol-6-yl)-N-phenylazetidine-3-carboxamide]
IC50 (KG-1): > 10 µM
IC50 (HL-60; Homo sapiens, HL-60, 120 h): 8.18 µM
microsomal CLint at 10 µM [2]: 23.4 µL/min/mg
Stability in SGF, % [3]: 98.9%
Stability in blood plasma, % [4]: 100%
CC50 at 72 h ([5]; HepG2 cells): > 100 µM
IC50 (MV4-11): 1.64 µM

Cn1cc(-c2ccc(-c3cncc4ncc(N5CCCC5=O)cc34)cc2)cn1 [CDK8-3-17, 1-(5-(4-(1-Methyl-1H-pyrazol-4-yl)phenyl)-1,7-naphthyridin-3-yl)pyrrolidin-2-one]
IC50 (KG-1): 3.93 µM
IC50 (HL-60; Homo sapiens, HL-60, 120 h): 46.5 µM
microsomal CLint at 10 µM [2]: 10.7 µL/min/mg
Stability in SGF, % [3]: 100%
Stability in blood plasma, % [4]: 100%
CC50 at 72 h ([5]; HepG2 cells): > 20 µM
IC50 (MV4-11): 8.85 µM
